Blank lines part the entries; values can stand above or below the compound they belong to.
Columns and labels:
[1] = test system: plasma from the hemophiliac patient (hemophiliac patient A); assay: Second ex vivo thrombin generation test (CAT analyzer, PPP Reagent LOW); type: biochemical, human; conditions: for Amount of thrombin at the maximum of the peak, normalized to the thrombin peak obtained with adapalene: 50 μM final in plasma (positive control: factor VIII 1 IU/mL), HEPES buffer, negative control 0.13 ± 0.02; for peak of generated thrombin compared to negative and positive control, in words: 50 μM final in plasma
Method: A second thrombin generation test is carried out, for the compounds H27, H31, H32, H35, H38, H39 and the compound H24.
The thrombin generation test was carried out at 37° C. using a CAT analyzer (Diagnostica Stago) with the PPP Reagent LOW reagent (Diagnostica Stago) in accordance with the manufacturer's instructions and according to the method established by Pr. Hemker in 2003. PPP Reagent LOW is a mixture of tissue factor (TF) 1 pM with phospholipid vesicles (PL, 4 μM). The test is triggered by the addition of a mixture of calcium+fluorescent substrate (ZGGR-AMC) (FluCa mixture).
From a technical point of view, 80 μL of surcharged plasma sample is added to 20 μL of «initiator complex» (PPP Reagent LOW) and incubated for 10 min at 37° C. Then, the reaction is triggered by adding 20 μL of FluCa (mixture of CaCl2 and ZGGR-AMC substrate) and the fluorescence signal is measured over time. Each test is performed in triplicate.
For each tested molecule, 247 μL of plasma from the hemophiliac patient were surcharged with 13 μL of a solution containing different amounts of compound (molecule to be tested, factor VIII or dilution buffer) to obtain the desired final concentration (systematic dilution of the molecule to be tested in the plasma at 1/20). For example, to obtain the final concentration of 50 μM in plasma, 13 μL of a 1 mM solution was added to 247 μL of plasma. In parallel with the tests on the different chemical compounds, the plasma of a hemophiliac patient is surcharged with the same buffer for diluting the compound, an 8% solution of dimethyl sulfoxide (DMSO), as a negative control (0.4% of final DMSO) in order to obtain the basal level of thrombin generation of the used plasma. The positive control is the same plasma surcharged with plasma factor VIII (Factane, LFB, France) at a concentration of 1 IU/mL (or 100% factor VIII) in order to obtain the expected «normal» level of thrombin generation used plasma.
For this example, solutions of adapalene and 1 mM compounds were prepared with the buffer (18 mM HEPES, 135 mM NaCl, pH 7.35) instead of water as in Example 1. This modification has made it possible to increase the amount of thrombin generated by the plasma of the hemophiliac patient A in the presence of 50 μM of adapalene.
Compounds were tested at a final concentration of 50 μM in plasma, and signal was measured over time. The obtained results, expressed as the amount of thrombin measured at the maximum of the peak obtained and normalized to the thrombin peak obtained with adapalene, are shown in Table 1 below: […]

[2] = test system: plasma from a patient suffering from severe hemophilia A; assay: Ex vivo thrombin generation test (STA-Genesia, STG-Bleedscreen reagent); type: biochemical, human
Method: The thrombin generation test consists of measuring the kinetics of appearance of this key coagulation factor in the plasma over time. After activation of coagulation by calcium, the amount of thrombin changes over time. It is measured using a synthetic thrombin substrate coupled to a fluorescent molecule (ZGGR-AMC). The main parameters determined are the latency time before observing an increase in thrombin generation, the thrombin peak corresponding to the maximum amount of thrombin generated and the ETP (endogenous thrombin potential) corresponding to the total amount of thrombin generated in plasma during the test. In the case of a patient with hemophilia A, the generation of thrombin is low or even almost zero for some patients. Adding the missing coagulation factor (factor VIII) to its physiological level (1 Ul/mL or 100%) restores coagulation in patients and recovers a «normal» thrombin generation. Thus, the thrombin generation test makes it possible to globally evaluate the coagulation rate of a given plasma and in the present case, it makes it possible to evaluate the capacity of a molecule to restore or not restore coagulation in a hemophiliac patient.
For this example, several ex vivo thrombin generation tests were carried out on plasma from a patient suffering from severe hemophilia A, therefore devoid of factor FVIII, in order to evaluate the effect on coagulation of a compound of general formula (I), more particularly adapalene, of formula (V) above, on the kinetics and the generated amount of thrombin.
Hemophiliac patient plasma was obtained from Cryopep company (Montpellier, France).
Adapalene is commercially available, in particular from Prestwick company. It was dissolved in an 8% dimethylsulfoxide (DMSO) solution then diluted to a concentration of 1 mM and then tested at the following concentrations: 50 μM, 5 μM, 0.5 μM (final concentrations in plasma).
The thrombin generation test was performed at 37° C. using a fully automated STA-Genesia analyzer (Diagnostica Stago) with STG®-Bleedscreen reagent (Diagnostica Stago) according to the manufacturer's instructions and according to the method established by Pr. Hemker in 2003. The STG®-Bleedscreen reagent is a mixture of tissue factor (TF) at low concentration with phospholipid vesicles (PL). The test is triggered by the addition of a mixture of calcium+fluorescent substrate (ZGGR-AMC) (STG®-FluoStart mixture).
From a technical point of view, 4 volumes of surcharged plasma sample are added to 1 volume of «initiator complex» (STG®-Bleedscreen) and incubated for 10 min at 37° C. Then, the reaction is triggered by adding 1 volume of STG®-FluoStart (mixture of CaCl2 and ZGGR-AMC substrate) and the fluorescence signal is measured over time. Each test is performed in duplicate
For each tested molecule, 475 μL of plasma from the hemophiliac patient were surcharged with 25 μL of a solution containing different amounts of compound (molecule to be tested, factor VIII or dilution buffer) to obtain the desired final concentration (systematic dilution of the molecule to be tested in the plasma at 1/20). For example, to obtain the final concentration of 50 μM in plasma, 25 μL of a 1 mM solution was added to 475 μL of plasma. The preparation of 500 μL of surcharged plasma allows to perform the 2 thrombin generation tests (duplicate), the 2 calibration tests (duplicate) and takes into account the dead volume of the automaton.
In parallel with the tests on the different chemical compounds, the plasma of a hemophiliac patient is surcharged with the same buffer for diluting the compound, an 8% solution of dimethylsulfoxide (DMSO), as a negative control (0.4% of final DMSO) in order to obtain the basal level of thrombin generation of the used plasma. The positive control is the same plasma surcharged with plasma factor VIII (Factane, LFB, France) at a concentration of 1 IU/mL (or 100% factor VIII) in order to obtain the expected «normal» level of used thrombin generation plasma. […]

[3] = target: T1, FXa inhibition by TFPI-K1K2 (truncated human TFPI) (Homo sapiens, UniProt P10646, F53G); assay: FXa activity assay: release of FXa inhibition by TFPI-K1K2 (colorimetric, PNAPEP-1025); type: biochemical; conditions: 50 μM, TFPI-K1K2 30 nM, FXa 0.5 nM
T1 sequence (P10646 29-182 F53G): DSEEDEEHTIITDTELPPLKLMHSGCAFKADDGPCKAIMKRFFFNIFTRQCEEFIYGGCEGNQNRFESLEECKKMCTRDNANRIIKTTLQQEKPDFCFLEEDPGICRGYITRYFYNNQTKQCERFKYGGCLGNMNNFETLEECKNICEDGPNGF
Method: The ability of adapalene to reverse FXa inhibition by TFPI was assessed by using a low TFPI concentration FXa activity assay. For this test, a truncated human TFPI (TFPI-K1K2) was used, which is common to both TFPI isoforms α and β, having the amino acid sequence SEQ ID No 1:
Adapalene was tested for its ability to release FXa inhibition by TFPI-K1K2 using a colorimetric assay in a 96-well plate format. All steps were performed at room temperature. FXa inhibition by increasing TFPI-K1K2 concentrations was first analyzed to determine the best detection conditions. […]
Briefly, 14.5 μL of 350 μM adapalene, prediluted in the buffer described above, was added to 62.5 μL 50 nM TFPI-K1K2 and mixed together by aspiration/dispensing. After 10 min of incubation at room temperature, 6.25 μL of 8 nM FXa was added, the mixture was mixed again, and the activity of uninhibited FXa was quantified by the addition of 18 μL of PNAPEP-1025 (Cryopep), an FXa substrate, diluted to 2 mM in H2O. […]
The plates were centrifuged to remove any bubbles and the optical density (OD) at 405 nm, corresponding to the hydrolysis of the PNAPEP-1025 substrate, was measured for 1 h at room temperature. The absorbance value at t0, corresponding to an absorbance of 0.05, was subtracted and the […] restoration value was reported as a percentage of the positive control.

[4] = adapalene 0.5 μM final in severe hemophilia A plasma
[5] = adapalene 5 μM final in severe hemophilia A plasma
[6] = adapalene 50 μM final in severe hemophilia A plasma

Compound: COc1ccc(N2CCc3cc(C(=O)O)ccc3C2)cc1C12CC3CC(CC(C3)C1)C2 [Compound H27, 2-(3-(adamantan-1-yl)-4-methoxyphenyl)-1,2,3,4-tetrahydroisoquinoline-6 carboxylic acid]
Amount of thrombin at the maximum of the peak, normalized to the thrombin peak obtained with adapalene [1]: 0.51

Compound: C#CCOc1ccc(-c2ccc3cc(C(=O)O)ccc3c2)cc1C12CC3CC(CC(C3)C1)C2 [Compound H35, 6-(3-(adamantan-1-yl)-4-(prop-2-yn-1-yloxy)phenyl)-2-naphthoic acid]
Amount of thrombin at the maximum of the peak, normalized to the thrombin peak obtained with adapalene [1]: 0.53

Compound: COc1ccc(-c2ccc3cc(CS(=O)(=O)O)ccc3c2)cc1C12CC3CC(CC(C3)C1)C2 [Compound H39, (6-(3-(adamantan-1-yl)-4-methoxyphenyl)naphthalen-2-yl)methanesulfonic acid]
peak of generated thrombin compared to negative and positive control, in words [1]: much higher | Amount of thrombin at the maximum of the peak, normalized to the thrombin peak obtained with adapalene [1]: 1.22

Compound: COc1ccc(-c2ccc(C(=O)NCC(=O)O)cc2)cc1C12CC3CC(CC(C3)C1)C2 [Compound H24, 2-(3′-(adamantan-1-yl)-4′-methoxy-[1,1′-biphenyl]-4-ylcarboxamido)acetic acid]
Amount of thrombin at the maximum of the peak, normalized to the thrombin peak obtained with adapalene [1]: 0.23

Compound: COc1ccc(-c2ccc3cc(C(=O)O)cnc3c2)cc1C12CC3CC(CC(C3)C1)C2 [Compound H32, 7-(3-(adamantan-1-yl)-4-methoxyphenyl)quinoline-3-carboxylic acid]
Amount of thrombin at the maximum of the peak, normalized to the thrombin peak obtained with adapalene [1]: 0.55

coagulation restoration percentage (percentage of the positive control) [3]: approximately 14% | optical density (OD) at 405 nm, hydrolysis of PNAPEP-1025 by uninhibited FXa ([3]; negative control OD 0.048, positive control OD 0.406): 0.105
Compound: COc1ccc(-c2ccc3cc(C(=O)O)ccc3c2)cc1C12C[C@H]3C[C@@H](C1)C[C@@H](C2)C3 [adapalene, 6-[3-(1-adamantyl)-4-methoxyphenyl]naphthalene-2-carboxylic acid]
generation of thrombin (peak and ETP) compared to negative and positive control, in words ([2]; 50 μM in severe hemophilia A plasma, FIG. 3 and FIG. 4): increase in the generation of thrombin compared to the negative control | ETP (endogenous thrombin potential) [2, 4]: 455 nM·min | thrombin peak [2, 4]: 29.7 nM | ETP (endogenous thrombin potential) [2, 5]: 504 nM·min | thrombin peak [2, 5]: 39 nM | ETP (endogenous thrombin potential) [2, 6]: 588 nM·min | thrombin peak [2, 6]: 55 nM | peak of generated thrombin compared to negative and positive control, in words [1]: much higher | Amount of thrombin at the maximum of the peak, normalized to the thrombin peak obtained with adapalene [1]: 1

Compound: COc1ccc(-c2ccc3nc(C(=O)O)ccc3c2)cc1C12CC3CC(CC(C3)C1)C2 [Compound H31, 6-(3-(adamantan-1-yl)-4-m2thoxyph2nyl)quinoline-2-carboxylic acid]
Amount of thrombin at the maximum of the peak, normalized to the thrombin peak obtained with adapalene [1]: 0.62

Compound: COc1ccc(-c2ccc3cc(C(=O)O)cc(O)c3c2)cc1C12CC3CC(CC(C3)C1)C2 [Compound H38, 6-(3-(adamantan-1-yl)-4-methoxyphenyl)-4-hydroxy-2-naphthoic acid]
peak of generated thrombin compared to negative and positive control, in words [1]: much higher | Amount of thrombin at the maximum of the peak, normalized to the thrombin peak obtained with adapalene [1]: 0.96
